Assay results taken from PMC10771525 (Communications Biology, 2024).

What was measured:
[1] = target: T1, CRHR2 (Homo sapiens, UniProt Q13324); test: GPCR panel (control), Arrestin, CHO-K1; assay type: cell-based; details: reference agonist
T1 construct: expressed in transfected cells; host or cells: CHO-K1

[2] = target: T2, PTHR1 (Homo sapiens, UniProt Q03431); test: GPCR panel (control), Arrestin, CHO-K1; assay type: cell-based; details: reference agonist
T2 construct: expressed in transfected cells; host or cells: CHO-K1

[3] = target: T3, OXTR (Homo sapiens, UniProt P30559); test: GPCR panel (control), Arrestin, CHO-K1; assay type: cell-based; details: reference agonist
T3 construct: expressed in transfected cells; host or cells: CHO-K1

[4] = target: HSR1A (Homo sapiens, UniProt Q92847); details: reference agonist, U2OS, Arrestin
[5] = target: T4, EDNRB (Homo sapiens, UniProt P24530); test: GPCR panel (control), Arrestin, CHO-K1; assay type: cell-based; details: reference agonist
T4 construct: expressed in transfected cells; host or cells: CHO-K1

[6] = target: DRD2L (Homo sapiens, UniProt P14416); details: reference agonist, CHO-K1, Arrestin
[7] = target: DRD2S (Homo sapiens, UniProt P14416); details: reference agonist, CHO-K1, Arrestin
[8] = target: DRD4 (Homo sapiens, UniProt P21917); details: reference agonist, DRD4, CHO-K1, Arrestin
[9] = target: T5, PPYR1 (NPY4) (Homo sapiens, UniProt P50391); test: GPCR panel (control), Arrestin, CHO-K1; assay type: cell-based; details: reference agonist
T5 construct: expressed in transfected cells; host or cells: CHO-K1

[10] = target: CALCR (Homo sapiens, UniProt P30988); details: reference agonist, U2OS, Arrestin
[11] = target: CALCR + RAMP2 (Homo sapiens, UniProt O60895+P30988); details: reference agonist, CALCR + RAMP2, CHO-K1, Arrestin
[12] = target: CALCR + RAMP3 (Homo sapiens, UniProt O60896+P30988); details: reference agonist, CALCR + RAMP3, CHO-K1, Arrestin
[13] = target: ADCYAP1R1 (Homo sapiens, UniProt P41586); details: reference agonist, ADCYAP1R1, CHO-K1, Arrestin
[14] = target: T6, PTHR2 (Homo sapiens, UniProt P49190); test: GPCR panel (control), Arrestin, CHO-K1; assay type: cell-based; details: reference agonist
T6 construct: expressed in transfected cells; host or cells: CHO-K1

[15] = target: GLP1R (Homo sapiens, UniProt P43220); details: reference agonist, CHO-K1, Arrestin
[16] = target: CHRM4 (Homo sapiens, UniProt P08173); test: GPCR panel (control), Arrestin, CHO-K1; assay type: cell-based; details: reference agonist
[17] = target: CHRM5 (Homo sapiens, UniProt P08912); test: GPCR panel (control), Arrestin, CHO-K1; assay type: cell-based; details: reference agonist
[18] = target: CHRM2 (Homo sapiens, UniProt P08172); details: reference agonist, CHRM2, CHO-K1, Arrestin
[19] = target: LTB4R (Homo sapiens, UniProt Q15722); test: GPCR panel (control), Arrestin, CHO-K1; assay type: cell-based; details: reference agonist
[20] = target: T7, TACR3 (Homo sapiens, UniProt P29371); test: GPCR panel (control), Arrestin, CHO-K1; assay type: cell-based; details: reference agonist
T7 construct: expressed in transfected cells; host or cells: CHO-K1

[21] = target: T8, RXFP3 (Homo sapiens, UniProt Q9NSD7); test: GPCR panel (control), Arrestin, U2OS; assay type: cell-based; details: reference agonist
T8 construct: expressed in transfected cells; host or cells: U2OS

[22] = target: T9, F2RL1 (Homo sapiens, UniProt P55085); test: GPCR panel (control), Arrestin, U2OS; assay type: cell-based; details: reference agonist
T9 construct: expressed in transfected cells; host or cells: U2OS

[23] = target: T10, MRGPRX2 (Homo sapiens, UniProt Q96LB1); test: GPCR panel (control), Arrestin, CHO-K1; assay type: cell-based; details: reference agonist
T10 sequence (Q96LB1 1-330): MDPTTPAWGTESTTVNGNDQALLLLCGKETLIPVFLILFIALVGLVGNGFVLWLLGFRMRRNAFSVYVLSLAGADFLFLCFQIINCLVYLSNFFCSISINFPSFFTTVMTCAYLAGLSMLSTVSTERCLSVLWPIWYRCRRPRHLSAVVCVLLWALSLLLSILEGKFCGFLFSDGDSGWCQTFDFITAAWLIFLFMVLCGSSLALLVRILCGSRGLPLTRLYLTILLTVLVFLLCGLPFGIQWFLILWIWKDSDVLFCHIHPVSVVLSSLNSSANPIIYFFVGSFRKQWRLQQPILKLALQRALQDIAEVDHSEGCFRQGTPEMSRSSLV

[24] = target: ADRA1B (Homo sapiens, UniProt P35368); test: GPCR panel (control), Arrestin, CHO-K1; assay type: cell-based; details: reference agonist
Sequence of ADRA1B (P35368 whole entry): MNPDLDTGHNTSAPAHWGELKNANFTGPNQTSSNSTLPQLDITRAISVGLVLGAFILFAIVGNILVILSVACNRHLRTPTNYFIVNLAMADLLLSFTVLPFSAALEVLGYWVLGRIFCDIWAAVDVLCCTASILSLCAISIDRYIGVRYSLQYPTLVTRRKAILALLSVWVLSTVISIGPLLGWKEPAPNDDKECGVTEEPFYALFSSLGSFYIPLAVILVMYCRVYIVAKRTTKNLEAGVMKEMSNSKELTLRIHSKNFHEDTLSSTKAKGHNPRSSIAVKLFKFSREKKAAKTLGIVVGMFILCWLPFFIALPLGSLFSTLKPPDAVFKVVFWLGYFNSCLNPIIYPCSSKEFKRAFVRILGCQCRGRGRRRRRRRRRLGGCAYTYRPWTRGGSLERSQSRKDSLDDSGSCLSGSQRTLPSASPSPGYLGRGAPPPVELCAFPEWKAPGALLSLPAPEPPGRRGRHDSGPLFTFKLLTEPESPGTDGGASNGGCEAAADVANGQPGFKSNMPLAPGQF

T4 sequence (P24530 27-442): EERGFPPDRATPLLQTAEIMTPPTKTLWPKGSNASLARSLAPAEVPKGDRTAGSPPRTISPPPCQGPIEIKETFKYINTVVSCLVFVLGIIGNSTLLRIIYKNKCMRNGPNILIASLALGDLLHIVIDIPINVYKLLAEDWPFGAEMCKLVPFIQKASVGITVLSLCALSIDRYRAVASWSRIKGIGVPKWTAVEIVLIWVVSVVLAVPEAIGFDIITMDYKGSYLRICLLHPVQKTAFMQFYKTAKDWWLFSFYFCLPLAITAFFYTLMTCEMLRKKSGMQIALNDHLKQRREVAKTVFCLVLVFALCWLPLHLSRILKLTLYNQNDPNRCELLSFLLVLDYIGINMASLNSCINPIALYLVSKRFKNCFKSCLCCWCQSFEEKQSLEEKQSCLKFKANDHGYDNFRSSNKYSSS
T2 sequence (Q03431 27-593): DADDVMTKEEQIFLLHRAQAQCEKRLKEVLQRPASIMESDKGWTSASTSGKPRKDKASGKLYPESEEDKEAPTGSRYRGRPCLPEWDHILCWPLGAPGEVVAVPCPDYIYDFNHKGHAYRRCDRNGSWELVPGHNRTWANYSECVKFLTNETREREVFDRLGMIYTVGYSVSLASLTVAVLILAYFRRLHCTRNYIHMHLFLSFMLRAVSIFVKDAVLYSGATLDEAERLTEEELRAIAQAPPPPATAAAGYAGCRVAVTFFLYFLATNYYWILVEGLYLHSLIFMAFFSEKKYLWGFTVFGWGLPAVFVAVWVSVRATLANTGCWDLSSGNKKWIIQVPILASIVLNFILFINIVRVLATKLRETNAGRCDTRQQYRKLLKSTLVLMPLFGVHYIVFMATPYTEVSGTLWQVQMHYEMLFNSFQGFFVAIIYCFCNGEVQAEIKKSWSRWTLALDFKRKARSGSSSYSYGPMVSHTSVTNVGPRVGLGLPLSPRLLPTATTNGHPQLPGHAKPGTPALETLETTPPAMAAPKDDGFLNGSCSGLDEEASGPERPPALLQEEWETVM
Sequence of CHRM5 (P08912 whole entry): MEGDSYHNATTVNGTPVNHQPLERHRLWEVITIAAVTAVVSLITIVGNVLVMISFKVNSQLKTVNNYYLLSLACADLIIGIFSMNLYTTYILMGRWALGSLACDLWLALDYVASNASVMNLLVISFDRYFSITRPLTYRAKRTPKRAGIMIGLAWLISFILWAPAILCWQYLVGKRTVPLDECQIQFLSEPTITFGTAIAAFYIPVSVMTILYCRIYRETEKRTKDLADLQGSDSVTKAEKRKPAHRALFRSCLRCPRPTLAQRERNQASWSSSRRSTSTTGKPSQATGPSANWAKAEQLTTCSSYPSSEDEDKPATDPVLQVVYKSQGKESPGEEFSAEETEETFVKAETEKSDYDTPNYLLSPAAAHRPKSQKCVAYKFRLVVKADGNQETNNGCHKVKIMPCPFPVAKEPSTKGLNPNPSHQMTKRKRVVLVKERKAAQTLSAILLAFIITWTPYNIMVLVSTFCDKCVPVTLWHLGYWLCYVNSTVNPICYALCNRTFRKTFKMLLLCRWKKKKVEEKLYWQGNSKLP
Sequence of HSR1A (Q92847 whole entry): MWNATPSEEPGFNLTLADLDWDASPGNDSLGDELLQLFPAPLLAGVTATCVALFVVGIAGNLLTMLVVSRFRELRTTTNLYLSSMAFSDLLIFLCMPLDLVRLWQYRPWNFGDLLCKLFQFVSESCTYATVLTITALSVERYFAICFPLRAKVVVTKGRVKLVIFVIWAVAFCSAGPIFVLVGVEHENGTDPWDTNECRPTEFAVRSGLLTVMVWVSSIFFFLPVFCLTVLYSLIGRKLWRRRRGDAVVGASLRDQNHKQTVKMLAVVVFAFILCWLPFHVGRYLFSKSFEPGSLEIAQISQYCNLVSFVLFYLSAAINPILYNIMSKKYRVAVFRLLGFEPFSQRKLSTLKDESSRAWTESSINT
Sequence of ADCYAP1R1 (P41586 21-468): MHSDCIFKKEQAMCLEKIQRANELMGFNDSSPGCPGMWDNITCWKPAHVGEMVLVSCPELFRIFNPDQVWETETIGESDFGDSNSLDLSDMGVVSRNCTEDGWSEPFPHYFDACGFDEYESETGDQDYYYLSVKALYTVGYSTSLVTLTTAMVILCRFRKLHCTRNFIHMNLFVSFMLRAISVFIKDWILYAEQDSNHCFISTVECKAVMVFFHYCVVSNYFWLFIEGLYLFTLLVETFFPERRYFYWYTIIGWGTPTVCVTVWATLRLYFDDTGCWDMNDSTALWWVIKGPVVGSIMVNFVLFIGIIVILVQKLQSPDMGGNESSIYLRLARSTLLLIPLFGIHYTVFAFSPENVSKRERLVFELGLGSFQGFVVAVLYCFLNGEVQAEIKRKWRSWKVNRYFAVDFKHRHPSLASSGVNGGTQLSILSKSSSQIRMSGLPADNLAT
T8 sequence (Q9NSD7 whole entry): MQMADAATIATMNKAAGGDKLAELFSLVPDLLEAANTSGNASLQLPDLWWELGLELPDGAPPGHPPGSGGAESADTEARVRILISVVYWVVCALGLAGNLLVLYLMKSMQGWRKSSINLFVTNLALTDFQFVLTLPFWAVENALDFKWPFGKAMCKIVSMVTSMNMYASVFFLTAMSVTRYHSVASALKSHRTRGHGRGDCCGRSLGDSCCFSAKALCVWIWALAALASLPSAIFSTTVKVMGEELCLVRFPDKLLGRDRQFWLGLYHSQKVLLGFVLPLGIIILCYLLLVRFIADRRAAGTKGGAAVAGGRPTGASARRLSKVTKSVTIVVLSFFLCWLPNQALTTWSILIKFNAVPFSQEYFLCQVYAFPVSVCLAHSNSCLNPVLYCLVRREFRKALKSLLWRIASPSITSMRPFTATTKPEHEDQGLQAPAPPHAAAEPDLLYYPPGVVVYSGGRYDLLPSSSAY
T3 sequence (P30559 whole entry): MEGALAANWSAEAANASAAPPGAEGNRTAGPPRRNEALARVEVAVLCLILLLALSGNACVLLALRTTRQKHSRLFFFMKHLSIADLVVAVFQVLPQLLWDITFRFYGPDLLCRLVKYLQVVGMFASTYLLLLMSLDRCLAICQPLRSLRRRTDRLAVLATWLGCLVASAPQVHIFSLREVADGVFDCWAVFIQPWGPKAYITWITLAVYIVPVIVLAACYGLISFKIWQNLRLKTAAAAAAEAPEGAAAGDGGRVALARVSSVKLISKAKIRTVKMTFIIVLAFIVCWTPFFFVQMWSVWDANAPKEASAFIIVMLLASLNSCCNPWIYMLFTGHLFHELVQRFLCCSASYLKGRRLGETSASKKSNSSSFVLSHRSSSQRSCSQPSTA
Sequence of CHRM2 (P08172 whole entry): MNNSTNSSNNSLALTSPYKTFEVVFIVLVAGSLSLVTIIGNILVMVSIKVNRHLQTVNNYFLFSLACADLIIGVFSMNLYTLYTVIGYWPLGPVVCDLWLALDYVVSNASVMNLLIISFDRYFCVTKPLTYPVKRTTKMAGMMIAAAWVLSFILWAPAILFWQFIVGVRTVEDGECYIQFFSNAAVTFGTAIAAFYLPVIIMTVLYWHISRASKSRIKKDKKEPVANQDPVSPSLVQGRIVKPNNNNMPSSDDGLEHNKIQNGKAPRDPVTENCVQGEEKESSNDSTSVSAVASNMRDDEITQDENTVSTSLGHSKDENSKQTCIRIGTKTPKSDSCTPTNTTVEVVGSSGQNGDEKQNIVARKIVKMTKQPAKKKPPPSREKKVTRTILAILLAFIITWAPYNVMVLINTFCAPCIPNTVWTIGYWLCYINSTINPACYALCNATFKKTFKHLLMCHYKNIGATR
Sequence of DRD4 (P21917 whole entry): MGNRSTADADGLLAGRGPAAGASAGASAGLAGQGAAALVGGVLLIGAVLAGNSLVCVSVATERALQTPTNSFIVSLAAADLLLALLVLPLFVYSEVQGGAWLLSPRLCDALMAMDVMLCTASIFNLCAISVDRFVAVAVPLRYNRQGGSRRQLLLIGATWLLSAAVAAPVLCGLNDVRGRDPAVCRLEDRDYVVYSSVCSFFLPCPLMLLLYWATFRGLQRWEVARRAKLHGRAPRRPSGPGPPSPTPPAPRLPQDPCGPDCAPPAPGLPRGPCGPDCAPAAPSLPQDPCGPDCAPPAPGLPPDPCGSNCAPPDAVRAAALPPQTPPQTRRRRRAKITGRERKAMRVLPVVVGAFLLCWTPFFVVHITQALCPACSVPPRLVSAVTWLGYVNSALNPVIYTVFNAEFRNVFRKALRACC
Sequence of LTB4R (Q15722 whole entry): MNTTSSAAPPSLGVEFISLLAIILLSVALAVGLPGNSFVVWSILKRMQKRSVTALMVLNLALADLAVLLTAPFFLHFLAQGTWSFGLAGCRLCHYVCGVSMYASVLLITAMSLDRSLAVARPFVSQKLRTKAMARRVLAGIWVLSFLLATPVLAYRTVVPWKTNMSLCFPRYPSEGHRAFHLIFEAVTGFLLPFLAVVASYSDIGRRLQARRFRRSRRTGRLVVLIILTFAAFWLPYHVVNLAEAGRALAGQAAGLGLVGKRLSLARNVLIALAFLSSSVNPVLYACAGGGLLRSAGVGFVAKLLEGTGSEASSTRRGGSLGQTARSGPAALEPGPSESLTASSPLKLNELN

With Sauvagine as the compound, how does the “EC80” value [1] read?
The value was 0.46 µM.

With PTH(1-34) as the compound, how does the “EC80” value [2] read?
The value was 0.28 µM.

For `CC[C@H](C)[C@@H]1NC(=O)[C@H](Cc2ccc(O)cc2)NC(=O)[C@@H](N)CSSC[C@@H](C(=O)N2CCC[C@H]2C(=O)N[C@@H](CC(C)C)C(=O)NCC(N)=O)NC(=O)[C@H](CC(N)=O)NC(=O)[C@H](CCC(N)=O)NC1=O` [Oxytocin], which “EC80” value [3] is on record?
The value was 0.28 µM.

With Ghrelin as the compound, how does the “EC80” value [4] read?
The value was 0.38 µM.

Which “EC80” value [5] does the source give for Endothelin-3 here?
Its value is 0.26 µM.

With `NCCc1ccc(O)c(O)c1` [Dopamine] as the compound, how does the “EC80” value [6] read?
Its value is 18 µM.

And the “EC80” value [7]?
Its value is 5.4 µM.

What about the “EC80” value [8] of the same compound?
The value was 21 µM.

Pancreatic polypeptide was tested. Which “EC80” value [9] did it give?
The value was 0.062 µM.

What does the source list for Calcitonin?
EC80 [10]: 1.6 µM; EC80 [11]: 0.44 µM; EC80 [12]: 8.9 µM

How did the “EC80” value [13] turn out when PACAP-27 was run?
The value was 0.14 µM.

With TIP-39 as the compound, how does the “EC80” value [14] read?
Its value is 0.13 µM.

How did the “EC80” value [15] turn out when Exendin-4 was run?
The value was 0.24 µM.

What does the source list for `CC(=O)OCC[N+](C)(C)C` [Acetylcholine]?
EC80 [16]: 200 µM; EC80 [17]: 150 µM; EC80 [18]: 230 µM

For `CCCCC/C=C\C[C@@H](O)/C=C/C=C/C=C\[C@@H](O)CCCC(=O)O` [Leukotriene B4], which “EC80” value [19] is on record?
The value was 5 µM.

For `CSCC[C@H](NC(=O)[C@H](CC(C)C)NC(=O)CNC(=O)[C@H](Cc1ccccc1)NC(=O)[C@H](Cc1ccccc1)NC(=O)[C@H](CCC(N)=O)NC(=O)[C@H](CCC(N)=O)NC(=O)[C@@H]1CCCN1C(=O)[C@H](CCCCN)NC(=O)[C@@H]1CCCN1C(=O)[C@@H](N)CCCN=C(N)N)C(N)=O` [Substance P], which “EC80” value [20] is on record?
Its value is 0.92 µM.

Which “EC80” value [21] does the source give for Relaxin-3 here?
Its value is 3.1 µM.

With SLIGRL-NH2 as the compound, how does the “EC80” value [22] read?
The value was 24 µM.

Cortistatin-14 was tested. Which “EC80” value [23] did it give?
Its value is 8.1 µM.

For `CNC[C@H](O)c1cccc(O)c1` [Phenylephrine], which “EC80” value [24] is on record?
The value was 10 µM.
